Measured values published in patent US9187492B2, “Pyripyropene derivative having ACAT2 inhibiting activity and stable to metabolizing enzymes” (School Juridical Person Kitasato Institute, priority 2010, dated 2015).

Key:
in vitro = conditions: female, Sprague-Dawley (SD), rat, microsomes, pH 7.4, Half-life
[1] = female, Sprague-Dawley (SD), rat, microsomes, 6 μg/mL, pH 7.4

- half-life at 6 μg/mL (in vitro): 1 h
- Half-life [1]: <1 h
Compound: CC(=O)OC[C@@]1(C)[C@@H]2C[C@H](OC(C)=O)[C@@]3(C)Oc4cc(-c5cccnc5)oc(=O)c4[C@H](O)[C@@H]3[C@@]2(C)CC[C@@H]1OC(C)=O [PPA, pyripyropene A]
